18 compounds from US11485701B2, “Insect repellent compounds and compositions, and methods thereof” (Iowa State University Research Foundation, Inc., priority 2016, dated 2022) can be followed below.

The structures appear in SMILES notation. Where a name gives a salt, the structure may show the parent alone.

In assay [1] the test system is Northern house mosquitoes (Culex pipiens). In words: Long-term spatial repellency, static air repellency chamber, filter papers air-dried 5 hours. It counts as in vivo. The settings on record: air-dried 5 hours; for pest or weed control at 0.5 %: Culex pipiens, 1 mL of 0.5% solution in acetone. The protocol:
(§1) Northern house mosquitoes (Culex pipiens), a primary carrier of West Nile virus in eastern North America, were obtained from an established colony in the Medical Entomology Laboratory in the Department of Entomology at Iowa State University of Science and Technology, Ames Iowa. Mosquito rearing was performed by established protocols that are maintained by the Medical Entomology Laboratory. Repellency bioassays were performed with adult female mosquitoes that were 5-7 days post-emergent. […] Mosquitoes, prior to testing, were held at 27° C., 80% relative humidity, and on a 16:8 hr light:dark photoperiod.
(§2) Repellency bioassays were performed using a static air repellency chamber, which has been described in various publications by the Pesticide Toxicology Laboratory at Iowa State University of Science and Technology, Ames, Iowa Briefly, a 9-cm×60-cm glass tube was used to monitor the distribution of mosquitoes at 15 min, 30 min, 60 min, 90 min, 120 min, and 150 min after introducing mosquitoes into the static air repellency chamber. Treated filter papers were treated with 1 mL of 0.5% solution in acetone of the terpenoid analogs created in the lab and were exposed to ambient air for 5 hours before they were introduced into the spatial chamber for testing. This is a slight modification of the method described in Example 2, so as to evaluate the residual repellent character of these compounds on a treated surface after 5 hours. One end of the spatial chamber contained a treated filter paper, whereas the other (untreated) end of the spatial chamber was not treated with compound. Controls contained filter papers treated with acetone, the solvent used to make the 0.5% solutions. Each end of the repellency chamber was secured with a 100-mm Petri dish using celluloid tape. After securing the petri dishes with corresponding treated or untreated filter papers to the spatial chamber, mosquitoes were anesthetized with carbon dioxide, and approximately 20 female mosquitoes were placed into each repellency chamber for one replicate. The opening of the spatial repellency chamber was secured with celluloid tape to prevent their escape. Chambers were oriented in opposite directions from the previous replicate to account for any directional effect. Four replicates were performed for data analysis for both the control and treatment groups.
Data for spatial repellency, the percentage repellency, is reported at each of the respective time points in the figures and tables mentioned below in this disclosure. The percentage spatial repellency is the examination of the distribution of mosquitoes and is calculated using the following equation: […]

Assay [2] has the same test system. The assay can be described thus: Short-term spatial repellency, static air repellency chamber. Format: in vivo. The settings on record: 1 mL of 0.5% solution in acetone; for pest or weed control at 0.5 %: Culex pipiens, filter paper, air-dried 15 min. The protocol: as §1, with “that emerged” for “that were”, “days previously.” for “days post-emergent.”
as §2, with “Treated filter papers were treated with 1 mL of 0.5% solution in acetone of the terpenoid analogs created in the lab and were exposed to ambient air for 5 hours before they were introduced into the spatial chamber for testing. This is a slight modification of the method described in Example 2, so as to evaluate the residual repellent character of these compounds on a treated surface after 5 hours.” left out
Data for spatial repellency, the percentage repellency, is reported at each of the respective time points in the figures and tables mentioned below. The percentage spatial repellency is the examination of the distribution of mosquitoes and is calculated using the following equation: […]

The mark [3] stands for this setting: 0.25 h, 15 min, read-out: Long-term Percentage repellency 15 min.
[4] abbreviates: 1.5 h, 90 min, read-out: Long-term Percentage repellency 90 min.
[5] abbreviates: 2.5 h, 150 min, read-out: Long-term Percentage repellency 150 min.
Setting [6] is: 0.25 h, 15 min after introduction, read-out: Short-term Percentage repellency 15 min.
[7] abbreviates: 1.5 h, 90 min, read-out: Short-term Percentage repellency 90 min.
Setting [8] is: 2.5 h, 150 min, read-out: Short-term Percentage repellency 150 min.

Turning to `CC(C)=CCCC(C)CC(=O)OCCO` (stereo not shown) [Compound 1052S3, 2-hydroxyethyl citronellate], the pest or weed control at 0.5 % in assay [1] (setting [3]) turned out to be 37.5%; in assay [1] (setting [4]), 65%; in assay [1] (setting [5]), 75%.
Consider `CC(C)=CCCC(C)CCOC(=O)C(C)(C)C` (stereo not shown) [Compound 1036A, citronellyl pivalate], for which the pest or weed control at 0.5 % in assay [1] (setting [3]) is 27.5%; in assay [1] (setting [4]) it was 17.5%; in assay [1] (setting [5]), 20%; in assay [2] (setting [6]), 25%; in assay [2] (setting [7]), 90%; in assay [2] (setting [8]), 92.5%.
For the compound `O=C(OC/C=C/c1ccccc1)C1CCC1` [Compound 2039, cinnamyl cyclobutanecarboxylate], the pest or weed control at 0.5 % in assay [1] (setting [3]) was found to be 40%; in assay [1] (setting [4]), 57.5%; in assay [1] (setting [5]), 60%; in assay [2] (setting [6]), 30%.
Turning to `C=C(C)C1CC=C(COC(=O)C2CCC2)CC1` (stereo not shown) [Compound 2033, perillyl cyclobutanecarboxylate], in assay [1] (setting [3]), the pest or weed control at 0.5 % is 27.5%.
With `CC(=O)CCC(=O)OCCC(C)CCC=C(C)C` (stereo not shown) [Compound 2183, citronellyl levulinate], the pest or weed control at 0.5 % amounted to 35% in assay [1] (setting [3]); 45% in assay [1] (setting [4]); 55% in assay [1] (setting [5]); 35% in assay [2] (setting [6]); 45% in assay [2] (setting [7]); 55% in assay [2] (setting [8]).
With `Cc1ccc(C(C)C)c(OC(=O)C2CC2)c1` [Compound 1055A, thymol cyclopropanecarboxylate], the pest or weed control at 0.5 % was 0% in assay [1] (setting [3]); 32.5% in assay [1] (setting [4]); 52.5% in assay [1] (setting [5]); -10% in assay [2] (setting [6]); 87.5% in assay [2] (setting [7]); 95% in assay [2] (setting [8]). In addition, the “Short-term spatial repellency, in words” value in assay [2] was “very effective spatial repellent”. In assay [2], the “Short-term percentage repellency 30 min” value is 58%.
In the case of `Cc1ccc(C(C)C)c(OC(=O)CC(C)C)c1` [Compound 1055B, thymyl isovalerate], the pest or weed control at 0.5 % in assay [1] (setting [3]) was found to be 0%; in assay [1] (setting [4]), 22.5%; in assay [1] (setting [5]), 27.5%; in assay [2] (setting [6]), 12.5%; in assay [2] (setting [7]), 65%; in assay [2] (setting [8]) it was 77.5%.
For `CC(C)=CCCC(C)CCOC(=O)CC(C)C` (stereo not shown) [Compound 1034B, citronellyl isovalerate], the pest or weed control at 0.5 % in assay [1] (setting [3]) turned out to be 30%; in assay [1] (setting [4]), 30%; in assay [1] (setting [5]), 32.5%; in assay [2] (setting [6]) it was 17.5%; in assay [2] (setting [7]), 77.5%; in assay [2] (setting [8]), 82.5%.
Consider `CC1CCC(C(C)C)C(OC(=O)C2CC2)C1` (stereo not shown) [Compound 1033B, menthyl cyclopropanecarboxylate], for which the “Long-term repellency, in words” value in assay [1] (0.5% solution) is reported as “much greater than DEET”. The pest or weed control at 0.5 % was 65% in assay [1] (setting [3]); 71.7% in assay [1] (setting [4]); 82.5% in assay [1] (setting [5]); 15% in assay [2] (setting [6]); 95% in assay [2] (setting [7]); 92.5% in assay [2] (setting [8]). In assay [2], the “Short-term spatial repellency, in words” value is “very effective spatial repellent”. Further, the “Short-term percentage repellency 30 min” value in assay [2] was 47.5%. The “Short-term percentage repellency 120 min” value in assay [2] (120 minutes) amounted to 95%.
Take `Cc1ccc(C(C)C)c(OC(=O)C2CCCCC2)c1` [Compound 2085, thymyl cyclohexanecarboxylate]: the pest or weed control at 0.5 % in assay [1] (setting [3]) was 17.5%; in assay [1] (setting [4]), 35%; in assay [1] (setting [5]), 50%; in assay [2] (setting [6]), 17.5%; in assay [2] (setting [7]) it was 35%; in assay [2] (setting [8]), 50%.
As for `CC(C)=CCCC(C)CCOC(=O)C1(C)CCC1` (stereo not shown) [Compound 2106, citronellyl 1-methylcyclobutanecarboxylate], the pest or weed control at 0.5 % in assay [1] (setting [3]) was 15%; in assay [1] (setting [4]), 10%; in assay [1] (setting [5]), 15%; in assay [2] (setting [6]) it was 30%; in assay [2] (setting [7]), 60%; in assay [2] (setting [8]) it was 67.5%.
With `Cc1ccc(C(C)C)c(OC=O)c1` [Compound 1107A, thymyl formate], the pest or weed control at 0.5 % in assay [1] (setting [3]) was determined as 25%; in assay [1] (setting [4]), 17.5%; in assay [1] (setting [5]), 22.5%; in assay [2] (setting [6]) it was 35%; in assay [2] (setting [7]), 80%; in assay [2] (setting [8]), 75%.
With `CC(C)=CCCC(C)CCOC(=O)C1CCCC1` (stereo not shown) [Compound 2119, citronellyl cyclopentanecarboxylate], the pest or weed control at 0.5 % in assay [1] (setting [3]) is 20%; in assay [1] (setting [4]), 55%; in assay [1] (setting [5]), 45%; in assay [2] (setting [6]), -1.25%; in assay [2] (setting [7]), 33.8%; in assay [2] (setting [8]), 52.5%.
On to `CC(C)=CCCC(C)CCOC(=O)C1CC(C)C1` (stereo not shown) [Compound 3068, citronellyl 3-methylcyclobutanecarboxylate], for which the pest or weed control at 0.5 % in assay [1] (setting [3]) was 22.5%; in assay [1] (setting [4]) it was 32.5%; in assay [1] (setting [5]), 42.5%; in assay [2] (setting [6]) it was 22.5%; in assay [2] (setting [7]), 32.5%; in assay [2] (setting [8]), 42.5%.
On to `CC(C)=CCC/C(C)=C/C(=O)OCC1CC1` [Compound 2020, cyclopropylmethyl geranate], for which the pest or weed control at 0.5 % in assay [1] (setting [3]) was determined as 40%; in assay [1] (setting [4]), 45%; in assay [1] (setting [5]), 40%.
Take `Cc1ccc(C(C)C)cc1OC=O` [Compound 1107B, carvacryl formate]: the pest or weed control at 0.5 % turned out to be 30% in assay [1] (setting [3]), 37.5% in assay [1] (setting [4]) and 42.5% in assay [1] (setting [5]).
With `CC(C)=CCCC(C)CCOC(=O)Cc1cccs1` (stereo not shown) [Compound 2244, citronellyl thiophen-2-ylacetate], the pest or weed control at 0.5 % in assay [2] (setting [6]) came to 32.5%; in assay [2] (setting [7]), 45%; in assay [2] (setting [8]) it was 55%.
In the case of `CC1CCC(C(C)C)C(OC(=O)C2(C)CCC2)C1` (stereo not shown) [Compound 2210, menthyl 1-methylcyclobutanecarboxylate], the pest or weed control at 0.5 % is -5% in assay [2] (setting [6]) and 62.5% in assay [2] (setting [7]).
